{"source": "patent US20250308622A1", "about": "“METHODS FOR PREDICTING TRANSCRIPTION FACTOR ACTIVITY” (THE REGENTS OF THE UNIVERSITY OF COLORADO, A BODY CORPORATE, priority 2017, published 2025)", "key": {"STAT2": {"test_system": "STAT2", "experiment": "MD-level time series after Kdo2-lipid A, normalized to time-matched DMSO", "type": "cell-based", "details": "mouse T-cells, 1-24 hour time course, relative to time-matched DMSO, FIG. 12E", "description": "(§1) The top panel of FIG. 4A indicates the motif displacement distribution, MD-level, and the number of motifs within […] of any eRNA origin before and after stimulation with Nutlin-3a (e.g., Nutlin) on TP53, the transcription factor known to be activated. […] Blue dots indicate a MD-level difference <10^−6.\n(§2) In each of the aforementioned perturbations, nascent transcription was assessed at a time point of one hour or less. Therefore, it was determined whether MD-levels could capture transcription factor activity across broader time frames. […] For a number of TFs, MD-levels trend upward at 12.5 minutes and show significant changes within 25 minutes of exposure.\n(§3) GEO SRR numbers of these comparisons are outlined in Table 2."}, "interferon (IRF7)": {"test_system": "interferon (IRF7)", "experiment": "MD-level time series after Kdo2-lipid A, normalized to time-matched DMSO", "type": "cell-based", "details": "mouse T-cells, 1-24 hour time course, relative to time-matched DMSO, FIG. 12E", "description": "as §1, §2, §3"}, "YBOX1": {"test_system": "YBOX1", "experiment": "MD-level time series after Kdo2-lipid A, normalized to time-matched DMSO", "type": "cell-based", "details": "mouse T-cells, 1-24 hour time course, relative to time-matched DMSO, FIG. 12E"}, "[1]": {"test_system": "641 available TF-motif models", "experiment": "Differential MD-level analysis before/after Nutlin-3a, all available TF-motif models", "type": "cell-based, human", "details": "HCT116 cells, of 641 TF-motif models, p-value<10^−6, FIG. 12A", "excerpt": "(§4) The bottom panel of FIG. 4A indicates the change in MD-level (AMDS) following perturbation (y-axis) relative to the number of motifs within 1.5kb of any eRNA origin (x-axis). […] (D) A time series data set following treatment with Flavopiridol Jonkers2014. The y-axis indicates the MD-level change relative to time point 0. Blue dots indicate a MD-level difference <10^−6. A darker shaded line indicates a time trajectory with at least one significant MD-level. (E) Time series data set following treatment with Kdo2-lipid A (KLA) where each time point is normalized to time-matched DMSO Kaikkonen2014. Therefore, the y-axis indicates MD-level difference relative to the time point matched DMSO sample.\n(§5) The Motif Displacement score (MD-level) relates the proportion of significant motif sites within some window 2*h divided by the total number of motifs against some larger window 2*H centered at all bidirectional origin events. It is calculated on a per PWM binding model basis.\nLet Xj={x1,x2, . . . } be the set of bidirectional origin locations genome wide for some experiment j. Let Yi={y1,y2, . . . } be the set of all significant motif sites for some TF-DNA binding motif model i genome wide, which is static as it only depends on the genome build of interest. Therefore the set of all MD-levels is calculated by equation 10. […]"}, "TFs": {"test_system": "TFs", "experiment": "MD-level time series after flavopiridol, all TFs", "type": "cell-based", "details": "mouse embryonic cells", "excerpt": "as §4\n(§6) In each of the aforementioned perturbations, nascent transcription was assessed at a time point of one hour or less.\n(§7) FIG. 12D data set following treatment with Flavopiridol Jonkers2014. The y-axis indicates the MD-level change relative to time point 0. […]\nas §5\n(§8) Let Xj={x1,x2, . . . } be the set of bidirectional origin locations genome wide for some experiment j. […] Therefore the set of all MD-levels is calculated by equation 10. […]"}, "TP53": {"test_system": "TP53", "experiment": "MD-level time series after flavopiridol", "type": "cell-based", "details": "mouse embryonic cells, time series 0-50 minutes relative to time point 0, FIG. 12D", "excerpt": "as §4, §6, §7, §5, §8"}, "E4F1": {"test_system": "E4F1", "experiment": "MD-level time series after flavopiridol", "type": "cell-based", "details": "mouse embryonic cells, time series 0-50 minutes relative to time point 0, FIG. 12D", "excerpt": "as §4, §6, §7, §5, §8"}}, "data": [{"smiles": "CCCCCCCCCCCCCC(=O)O[C@H](CCCCCCCCCCC)CC(=O)O[C@@H]1[C@@H](NC(=O)C[C@@H](CCCCCCCCCCC)OC(=O)CCCCCCCCCCC)[C@H](OC[C@H]2O[C@H](OP(=O)(O)O)[C@H](NC(=O)C[C@H](O)CCCCCCCCCCC)[C@@H](OC(=O)C[C@H](O)CCCCCCCCCCC)[C@@H]2O)O[C@H](CO[C@]2(C(=O)O)C[C@@H](O[C@]3(C(=O)O)C[C@@H](O)[C@@H](O)[C@@H]([C@H](O)CO)O3)[C@@H](O)[C@@H]([C@H](O)CO)O2)[C@H]1OP(=O)(O)O", "note": "[Kdo2-lipid A]", "values": [{"measurement": "shifts in MD-level of STAT2", "setting": "STAT2", "value": "dynamic and time-ordered shifts"}, {"measurement": "shifts in MD-level of interferon (IRF7)", "setting": "interferon (IRF7)", "value": "dynamic and time-ordered shifts"}, {"measurement": "change in co-localization (MD-level) of YBOX1", "setting": "YBOX1", "value": "decreased in co-localization"}]}, {"smiles": "COc1ccc(C2=N[C@@H](c3ccc(Cl)cc3)[C@@H](c3ccc(Cl)cc3)N2C(=O)N2CCNC(=O)C2)c(OC(C)C)c1", "note": "[Nutlin-3a]", "values": [{"measurement": "TF-motif models displaying elevated MD-levels following treatment", "setting": "[1]", "value": "only TP53 and TP63"}]}, {"smiles": "CN1CC[C@H](c2c(O)cc(O)c3c(=O)cc(-c4ccccc4Cl)oc23)[C@H](O)C1", "note": "[flavopiridol]", "values": [{"measurement": "MD-levels at 12.5 minutes, a number of TFs", "setting": "TFs; 12.5 minutes of exposure", "value": "trend upward"}, {"measurement": "time of exposure to significant changes in MD-levels, a number of TFs", "setting": "TFs; significance p<10^−6", "value": "≤ 25", "unit": "min"}, {"measurement": "change in MD-level of TP53", "setting": "TP53", "value": "dramatic and monotonic increase"}, {"measurement": "change in MD-level of E4F1", "setting": "E4F1", "value": "dramatic and monotonic increase"}]}]}
